Drawing on PubChem BioAssay (NCI), this text covers TGI and GI50 for 17 compounds.

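Cultured in 96-well plates, cells were exposed to test compound for 48 hours across five concentrations. GI50 = concentration required for 50% inhibition of growth. TGI: total growth inhibition.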

Among the test systems are HOP-62 NSCLC; SF-268 CNS; OVCAR-4 ovarian; U251 CNS; SK-MEL-5 melanoma; K-562 leukemia; DU-145 prostate; UO-31 renal; SNB-75 CNS.
Common to all, as to test: growth of human tumour cells (NCI), 48 h

Take `CC(C)/C(Cl)=N\OC(NC(=O)P(=O)(c1ccccc1)c1ccccc1)(C(F)(F)F)C(F)(F)F`: the TGI came out at 32.9 µM with HOP-62 NSCLC; 31.9 µM in the assay on SF-268 CNS; 25.1 µM in the assay on OVCAR-4 ovarian; 12 µM in the assay on U251 CNS; 26.7 µM in the assay with SK-MEL-5 melanoma; 23.8 µM with K-562 leukemia. The TGI was found to be 72 µM with DU-145 prostate and 21 µM with UO-31 renal.
Consider `CN1C(=O)C(O)C[C@@H]1c1ccccc1` (some centres undefined), for which the TGI with HOP-62 NSCLC, in the assay on SNB-75 CNS, with SF-268 CNS, in the assay with OVCAR-4 ovarian, in the assay with U251 CNS and in the assay on SK-MEL-5 melanoma was over 100 µM each time. Besides, the TGI in the assay with DU-145 prostate and in the assay with UO-31 renal was over 100 µM in each case.
`C=CCOn1c(C=C)nc2ccc(C)cc21`: the TGI with HOP-62 NSCLC is 78.3 µM; in the assay on SNB-75 CNS, 43.4 µM; with SF-268 CNS, 80.2 µM; in the assay on OVCAR-4 ovarian, over 100 µM; in the assay on U251 CNS, 26 µM; with SK-MEL-5 melanoma, 31.4 µM. The TGI with K-562 leukemia is 55.3 µM; in the assay on UO-31 renal, 27.4 µM.
Consider `O=c1[nH]n(Cc2ccccc2)c2ccc([N+](=O)[O-])cc12`, for which the TGI in the assay on HOP-62 NSCLC, in the assay with SF-268 CNS, in the assay on OVCAR-4 ovarian, in the assay with U251 CNS, with SK-MEL-5 melanoma and in the assay with K-562 leukemia was over 100 µM in each case. For the same compound, the TGI in the assay on DU-145 prostate and with UO-31 renal was over 100 µM throughout.
Take `CN1CC2=C(NC(=S)NC2c2ccccc2)/C(=C/c2ccccc2)C1` (centres undefined): the TGI was over 100 µM in the assay with HOP-62 NSCLC; over 100 µM in the assay on SNB-75 CNS; over 100 µM in the assay with SF-268 CNS; over 100 µM in the assay on U251 CNS; 74.1 µM in the assay with SK-MEL-5 melanoma; over 100 µM in the assay with K-562 leukemia. Moreover, the TGI in the assay with DU-145 prostate and in the assay on UO-31 renal was over 100 µM throughout.
On to `CN(Cc1cnc2nc(N)nc(N)c2n1)c1ccc(C(=O)NC(CO)CCCO)cc1` (centres undefined), for which the TGI with HOP-62 NSCLC, with SNB-75 CNS, with SF-268 CNS, with U251 CNS, with SK-MEL-5 melanoma and in the assay with K-562 leukemia was over 100 µM in each case. For the same compound, the TGI in the assay on DU-145 prostate and in the assay with UO-31 renal was over 100 µM in each case.
`CCN=C1C=CC(=C(c2ccc(N(CC)CC)cc2)c2ccc(N(CC)CC)cc2)c2ccccc21`: the GI50 was 0.159 µM in the assay with HOP-62 NSCLC; 0.0304 µM in the assay with SNB-75 CNS; 0.0348 µM with U251 CNS; 0.0363 µM in the assay with SK-MEL-5 melanoma; 0.0492 µM with DU-145 prostate. The TGI was 0.846 µM in the assay on HOP-62 NSCLC; 0.879 µM in the assay on SNB-75 CNS; 1.11 µM in the assay on U251 CNS; 0.133 µM in the assay with SK-MEL-5 melanoma; 1.37 µM with DU-145 prostate.
For `COC[C@@H](N=Cc1ccc([N+](=O)[O-])cc1)C(C)C`, the TGI with SNB-75 CNS, with SF-268 CNS, in the assay with OVCAR-4 ovarian, with U251 CNS, with K-562 leukemia and in the assay on DU-145 prostate was over 100 µM in each case. For the same compound, in the assay with UO-31 renal, the TGI was over 100 µM.
`COc1ccc(C(=O)CC(c2ccccc2)[C@H]2C(c3ccc(OC)cc3)=Nc3c(nc(SC)n(C)c3=O)NC2c2ccccc2)cc1` (some centres undefined): the TGI in the assay with HOP-62 NSCLC, with SF-268 CNS, in the assay with U251 CNS, in the assay with SK-MEL-5 melanoma, in the assay on K-562 leukemia and in the assay on DU-145 prostate was over 100 µM each time.
In the case of `C=CCC1C(O[Si](C)(C)C(C)(C)C)C(CO[Si](C)(C)C(C)(C)C)OC1n1ccc(=O)[nH]c1=O` (centres undefined), the TGI with SNB-75 CNS was found to be 2.79 µM; with U251 CNS it was 5.66 µM; in the assay with SK-MEL-5 melanoma, 2.91 µM; in the assay on DU-145 prostate, 4.54 µM; in the assay on UO-31 renal, 2.83 µM.
As for `CCOC(=O)Nn1c(CC#N)nnc1Cc1ccccc1`, the TGI in the assay on HOP-62 NSCLC, in the assay with SNB-75 CNS, in the assay on SF-268 CNS, in the assay with U251 CNS, with SK-MEL-5 melanoma and in the assay on K-562 leukemia was over 100 µM each time. Besides, the TGI in the assay with DU-145 prostate and in the assay on UO-31 renal was over 100 µM throughout.
On to `NCC(O)CSCc1ccc(Cl)cc1` (centres undefined), for which the TGI with HOP-62 NSCLC, in the assay with SF-268 CNS, in the assay on OVCAR-4 ovarian, in the assay with U251 CNS, with SK-MEL-5 melanoma and in the assay with K-562 leukemia was over 100 µM throughout. Also, the TGI in the assay with DU-145 prostate and with UO-31 renal was over 100 µM each time.
In the case of `CC(C)=CCNc1nc(Cl)nc2nc[nH]c12`, the TGI was 79.2 µM with HOP-62 NSCLC; over 100 µM in the assay with SNB-75 CNS; over 100 µM in the assay on SF-268 CNS; over 100 µM with OVCAR-4 ovarian; over 100 µM in the assay on SK-MEL-5 melanoma; over 100 µM with K-562 leukemia. The TGI in the assay on DU-145 prostate and in the assay on UO-31 renal was over 100 µM each time.
Regarding `COc1cc(C2C3=C(COC3=O)Oc3cc4c(cc32)OCO4)cc(OC)c1O` (centres undefined), the TGI with HOP-62 NSCLC was 15.2 µM; in the assay on SF-268 CNS it was 26.8 µM; in the assay on OVCAR-4 ovarian, 47.8 µM; in the assay on U251 CNS it was 14 µM; in the assay with SK-MEL-5 melanoma, under 0.0187 µM; in the assay on K-562 leukemia, 0.402 µM. For the same compound, the TGI in the assay with DU-145 prostate came to 0.391 µM; with UO-31 renal, 49.6 µM.
In the case of `CC(C)(C)OC(=O)NCC(CNC(=O)OC(C)(C)C)c1nc(C(N)=O)cs1`, the TGI in the assay on HOP-62 NSCLC, in the assay with SNB-75 CNS, in the assay on OVCAR-4 ovarian, in the assay with U251 CNS, with SK-MEL-5 melanoma and in the assay with K-562 leukemia was over 100 µM in each case. In the assay on UO-31 renal, this compound registered a TGI of over 100 µM.
For `O=C1C=CC(=O)c2c(O)c(NCCOCCO)c(Cl)c(O)c21`, the TGI in the assay on HOP-62 NSCLC is 34.2 µM; in the assay on SNB-75 CNS, 30.9 µM; in the assay with OVCAR-4 ovarian it was 5.91 µM; in the assay on U251 CNS it was 30.7 µM; in the assay with SK-MEL-5 melanoma, 4.47 µM; with K-562 leukemia it was over 100 µM. This compound gave a TGI in the assay on UO-31 renal of 29.7 µM.
For the compound `CCCSc1ccc2[nH]c(N3C(=O)/C(=C/c4ccccc4)N=C3c3ccccc3)cc2c1`, the TGI in the assay on SNB-75 CNS was over 50 µM; with SF-268 CNS it was over 50 µM; in the assay with OVCAR-4 ovarian it was over 50 µM; in the assay on SK-MEL-5 melanoma, 44.4 µM; in the assay on K-562 leukemia, over 50 µM; with DU-145 prostate, over 50 µM. The compound also gave a TGI with UO-31 renal of over 50 µM.
